Reference: ChEMBL document CHEMBL5537158, “Polymyxins with Potent Antibacterial Activity against Colistin-Resistant Pathogens: Fine-Tuning Hydrophobicity with Unnatural Amino Acids” (J Med Chem, 2024)
≈ marks a conversion by molar mass, not a printed value. Calls of active or inactive are those of the source. No cut-off for these calls is given here. Positions of bridges follow the written chain, without caps; N, C: chain ends. Non-standard residues stand in square brackets, D forms with d. Residues, ends and D or L forms follow the SMILES beside them. *: point of attachment. d(hPhe) = N[C@H](CCc1ccccc1)C(=O)O; Octanoyl = CCCCCCCC(=O)*; Dab = NCC[C@H](N)C(=O)O

Key:
Pseudomonas aeruginosa [1] = experiment: Antimicrobial activity against colistin resistant Pseudomonas aeruginosa 7197/19 assessed as bacterial growth inhibition incubated for 20 hrs by broth microdilution method; format: functional
Escherichia coli [2] = experiment: Antibacterial activity against […] Escherichia coli ATCC 25922 assessed as bacterial growth inhibition incubated for 20 hrs by broth microdilution method; format: functional
Escherichia coli [3] = experiment: Antibacterial activity against Escherichia coli ATCC 25922 assessed as bacterial growth inhibition incubated for 20 hrs by broth microdilution method; format: functional
Klebsiella pneumoniae [4] = experiment: Antimicrobial activity against colistin resistant Klebsiella pneumoniae ATCC 13883 assessed as bacterial growth inhibition incubated for 20 hrs by broth microdilution method; format: functional
Escherichia coli [5] = experiment: Antibacterial activity against […] Escherichia coli clinical isolate 2 assessed as bacterial growth inhibition incubated for 20 hrs by broth microdilution method; format: functional
Klebsiella pneumoniae [6] = experiment: Antimicrobial activity against colistin resistant Klebsiella pneumoniae clinical isolate 4 assessed as bacterial growth inhibition incubated for 20 hrs by broth microdilution method; format: functional
Escherichia coli [7] = experiment: Antimicrobial activity against […] Escherichia coli harboring mcr-1 assessed as bacterial growth inhibition incubated for 20 hrs by broth microdilution method; format: functional
Acinetobacter baumannii [8] = experiment: Antimicrobial activity against colistin resistant Acinetobacter baumannii clinical isolate 3 assessed as bacterial growth inhibition incubated for 20 hrs by broth microdilution method; format: functional
Escherichia coli [9] = experiment: Antibacterial activity against […] Escherichia coli clinical isolate 1 assessed as bacterial growth inhibition incubated for 20 hrs by broth microdilution method; format: functional
Pseudomonas aeruginosa [10] = experiment: Potency index, ratio of polymyxin B MIC to test compound MIC for antibacterial activity against colistin resistant Pseudomonas aeruginosa clinical isolate 1; format: functional
Escherichia coli [11] = experiment: Antibacterial activity against […] Escherichia coli clinical isolate 3 assessed as bacterial growth inhibition incubated for 20 hrs by broth microdilution method; format: functional
Pseudomonas aeruginosa [12] = experiment: Antimicrobial activity against Pseudomonas aeruginosa PAO1 assessed as bacterial growth inhibition incubated for 20 hrs by broth microdilution method; format: functional
Pseudomonas aeruginosa [13] = experiment: Antimicrobial activity against colistin resistant Pseudomonas aeruginosa clinical isolate 1 assessed as bacterial growth inhibition incubated for 20 hrs by broth microdilution method; format: functional
Klebsiella pneumoniae [14] = experiment: Antimicrobial activity against colistin resistant Klebsiella pneumoniae clinical isolate 1 assessed as bacterial growth inhibition incubated for 20 hrs by broth microdilution method; format: functional
Acinetobacter baumannii [15] = experiment: Antimicrobial activity against colistin resistant Acinetobacter baumannii clinical isolate 4 assessed as bacterial growth inhibition incubated for 20 hrs by broth microdilution method; format: functional
Acinetobacter baumannii [16] = experiment: Antimicrobial activity against colistin resistant Acinetobacter baumannii clinical isolate 1 assessed as bacterial growth inhibition incubated for 20 hrs by broth microdilution method; format: functional
Klebsiella pneumoniae [17] = experiment: Antimicrobial activity against Klebsiella pneumoniae ATCC 13883 assessed as bacterial growth inhibition incubated for 20 hrs by broth microdilution method; format: functional
[18] = Hemolytic activity in human RBC at 400 ug/ml after 1 hr; format: toxicity, cell-based, Erythrocyte; details: red blood cells (erythrocytes), at 400 µg/mL, read-out: Activity
Acinetobacter baumannii [19] = experiment: Antimicrobial activity against Acinetobacter baumannii ATCC 19606 assessed as bacterial growth inhibition incubated for 20 hrs by broth microdilution method; format: functional
Cell membrane = experiment: Induction of membrane destabilization in Escherichia coli MG1655 assessed as SYTOX uptake at 2 times MIC measured every 5 mins for 120 mins by microplate reader assay; format: cell membranes
Acinetobacter baumannii [20] = experiment: Antimicrobial activity against colistin resistant Acinetobacter baumannii ATCC 3658/17 assessed as bacterial growth inhibition incubated for 20 hrs by broth microdilution method; format: functional

| Compound | MIC (Pseudomonas aeruginosa [1]) [µg/mL] | MIC (Escherichia coli [3]) [µg/mL] | MIC (Escherichia coli [7]) [µg/mL] | MIC (Pseudomonas aeruginosa [12]) [µg/mL] | MIC (Klebsiella pneumoniae [17]) [µg/mL] | MIC (Acinetobacter baumannii [19]) [µg/mL] | Activity (Cell membrane) | also measured |
| --- | --- | --- | --- | --- | --- | --- | --- | --- |
| CCCCCCCC(=O)N[C@@H](CCN)C(=O)N[C@H](C(=O)N[C@@H](CCN)C(=O)N[C@H]1CCNC(=O)[C@H]([C@@H](C)O)NC(=O)[C@H](CCN)NC(=O)[C@H](CCN)NC(=O)[C@H](CC(C)C)NC(=O)[C@@H](Cc2ccc(Br)cc2)NC(=O)[C@H](CCN)NC1=O)[C@@H](C)O | 0.125 (≈ 0.0986 µM) | < 0.125 | 1 (≈ 0.788 µM) | 0.125 (≈ 0.0986 µM) | 0.125 (≈ 0.0986 µM) | – | – | MIC (Escherichia coli [2]): 0.125 µg/mL (≈ 0.0986 µM); MIC (Klebsiella pneumoniae [4]): 16 µg/mL (≈ 12.6 µM); MIC (Escherichia coli [5]): 2 µg/mL (≈ 1.58 µM); MIC (Klebsiella pneumoniae [6]): 16 µg/mL (≈ 12.6 µM); MIC (Acinetobacter baumannii [8]): 2 µg/mL (≈ 1.58 µM); MIC (Escherichia coli [9]): 2 µg/mL (≈ 1.58 µM); Ratio (Pseudomonas aeruginosa [10]): 2; MIC (Escherichia coli [11]): 2 µg/mL (≈ 1.58 µM); MIC (Pseudomonas aeruginosa [13]): 2 µg/mL (≈ 1.58 µM); MIC (Klebsiella pneumoniae [14]): 16 µg/mL (≈ 12.6 µM); MIC (Acinetobacter baumannii [15]): 2 µg/mL (≈ 1.58 µM); MIC (Acinetobacter baumannii [16]): 8 µg/mL (≈ 6.31 µM) |
| CC(=O)N[C@H](Cc1ccc(C(F)(F)F)cc1)C(=O)N[C@@H](CCN)C(=O)N[C@H](C(=O)N[C@@H](CCN)C(=O)N[C@H]1CCNC(=O)[C@H]([C@@H](C)O)NC(=O)[C@H](CCN)NC(=O)[C@H](CCN)NC(=O)[C@H](CC(C)C)NC(=O)[C@@H](Cc2ccccc2)NC(=O)[C@@H](CCN)NC1=O)[C@H](C)O | 32 (≈ 24.2 µM) | – | 4 (≈ 3.03 µM) | 0.25 (≈ 0.189 µM) | 8 (≈ 6.06 µM) | 0.5 (≈ 0.379 µM) | – | hemolysis at 1 h, 400 ug/ml [18]: < 10% |
| CCCCCCCC(=O)N[C@@H](CCN)C(=O)N[C@H](C(=O)N[C@@H](CCN)C(=O)N[C@H]1CCNC(=O)[C@H]([C@@H](C)O)NC(=O)[C@H](CCN)NC(=O)[C@H](CCN)NC(=O)C(CCCCCC)NC(=O)[C@@H](Cc2ccccc2)NC(=O)[C@@H](CCN)NC1=O)[C@H](C)O (stereo partly drawn) | – | – | – | – | – | – | Active | – |
| CCCCCCCC(=O)N[C@@H](CCN)C(=O)N[C@H](C(=O)N[C@@H](CCN)C(=O)N[C@H]1CCNC(=O)[C@H]([C@@H](C)O)NC(=O)[C@H](CCN)NC(=O)[C@H](CCN)NC(=O)C(CCCc2ccccc2)NC(=O)[C@@H](Cc2ccccc2)NC(=O)[C@@H](CCN)NC1=O)[C@H](C)O (stereo partly drawn) | – | – | – | – | – | – | Active | – |
| CCCCCCCC(=O)N[C@@H](CCN)C(=O)N[C@H](C(=O)N[C@@H](CCN)C(=O)N[C@H]1CCNC(=O)[C@H]([C@@H](C)O)NC(=O)[C@H](CCN)NC(=O)[C@H](CCN)NC(=O)[C@H](CC(C)C)NC(=O)[C@@H](Cc2ccc(Br)cc2)NC(=O)[C@@H](CCN)NC1=O)[C@H](C)O | – | – | – | – | – | – | Active | – |
| CCCCCCCC(=O)N[C@@H](CCN)C(=O)N[C@H](C(=O)N[C@@H](CCN)C(=O)N[C@H]1CCNC(=O)[C@H]([C@@H](C)O)NC(=O)[C@H](CCN)NC(=O)[C@H](CCN)NC(=O)[C@H](Cc2ccccc2)NC(=O)[C@@H](CCc2ccccc2)NC(=O)[C@H](CCN)NC1=O)[C@@H](C)O (Octanoyl-[Dab]T[Dab][Dab][Dab][d(hPhe)]F[Dab][Dab]T; lactam 4-C) | 0.25 (≈ 0.202 µM) | 0.5 (≈ 0.404 µM) | 2 (≈ 1.62 µM) | 0.25 (≈ 0.202 µM) | 2 (≈ 1.62 µM) | 0.125 (≈ 0.101 µM) | – | MIC (Acinetobacter baumannii [20]): 1 µg/mL (≈ 0.808 µM) |
